The record followed here is patent publication US20250129031A1, “1,2,3-TRIAZOLE CARBONYL SULFONYLAMIDE COMPOUNDS AND USE THEREOF” (PI INDUSTRIES LTD., priority 2022, published 2025).

In this assay the test system is Meloidogyne incognita. As to the kind of experiment: Meloidogyne incognita test: gall rating on cucumber plants in pots after soil application. It counts as in vivo. Also on record: key: 0: no galls; 1: very few small galls; 2: numerous small galls; 3: numerous small galls of which some are grown together; 4: numerous small and some big galls; 25% of roots severely galled; 6: 50% of roots severely galled; 75% of roots severely galled; 8: no healthy roots but plant is still green; 9: roots rotting and plant dying; 10: plant and roots dead. The note with it: 1000 ppm applied to soil inoculated with 5000 eggs & J2s; cucumber seedlings; rated 30 days after application; 0-10 scale (Zeck 1971); untreated check up to 8. How it is done:
Meloidogyne incognita Test:
The trial pots were filled with soil containing a mixture of sand:soil:cocopeat in a ratio of 1:1:1. To the soil of each pot 5 mL of a nematode suspension (Meloidogyne incognita, mix of 5000 eggs & J2s) was added. One hour later the respective test compound at the stated concentration was applied to each pot. 10 days old cucumber seedlings were transplanted into the pots one day after the application. The cucumber plants were allowed to grow at a temperature of 27° C. under greenhouse conditions. The evaluation of the gall rating was recorded 30 days after the application. The plants were carefully uprooted and the roots were thoroughly washed. The gall rating was done on a 0-10 scale as described by Zeck (1971) and shown below: • 0=no galls • 1=very few small galls • 2=numerous small galls • 3=numerous small galls of which some are grown together • 4=numerous small and some big galls • 5=25% of roots severely galled • 6=50% of roots severely galled • 7=75% of roots severely galled • 8=no healthy roots but plant is still green • 9=roots rotting and plant dying • 10=plant and roots dead
In the case of `Cc1c(C(=O)NS(=O)(=O)c2ccccc2Cl)nnn1-c1ccc(C#N)cc1Cl` [Compound 272], the gall rating scale is 4.

`Cc1c(C(=O)NS(=O)(=O)c2ccccc2F)nnn1-c1ccc(Cl)cc1Cl` [Compound 278, 1-(2,4-dichlorophenyl)-N-((2-fluorophenyl)sulfonyl)-5-methyl-1H-1,2,3-triazole-4-carboxamide] had a gall rating scale of 4.

On to `Cc1c(C(=O)NS(=O)(=O)c2ccc(F)cc2F)nnn1-c1ccc(Cl)cc1Cl` [Compound 279, 1-(2,4-dichlorophenyl)-N-((2,4-difluorophenyl)sulfonyl)-5-methyl-1H-1,2,3-triazole-4-carboxamide], for which the gall rating scale is given as 4.

With `Cc1cc(S(=O)(=O)NC(=O)c2nnn(-c3ccc(Cl)cc3Cl)c2C)c(C)cc1Cl` [Compound 280, N-((4-chloro-2,5-dimethylphenyl)sulfonyl)-1-(2,4-dichlorophenyl)-5-methyl-1H-1,2,3-triazole-4-carboxamide], the gall rating scale worked out at 4.

In turn, `Cc1c(C(=O)NS(=O)(=O)c2c(F)cc(F)cc2F)nnn1-c1ccc(Cl)cc1Cl` [Compound 281, 1-(2,4-dichlorophenyl)-5-methyl-N-((2,4,6-trifluorophenyl)sulfonyl)-1H-1,2,3-triazole-4-carboxamide] returned a gall rating scale of 4.

The compound `CCc1c(C(=O)NS(=O)(=O)c2cc(C(F)(F)F)ccc2Cl)nnn1-c1ccc(OC(F)(F)F)cc1Cl` [Compound 311, 1-(2-chloro-4-(trifluoromethoxy)phenyl)-N-((2-chloro-5-(trifluoromethyl)phenyl)sulfonyl)-5-ethyl-1H-1,2,3-triazole-4-carboxamide] showed a gall rating scale of 4.

For `Cc1c(C(=O)NS(=O)(=O)c2cc(C(F)(F)F)ccc2Cl)nnn1-c1ccc(C#N)cc1Cl` [Compound 315], the gall rating scale was found to be 4.

In turn, `Cc1c(C(=O)NS(=O)(=O)c2cc(Cl)ccc2Cl)nnn1-c1ccc(C#N)cc1Cl` [Compound 316, 1-(2-chloro-4-cyanophenyl)-N-((2,5-dichlorophenyl)sulfonyl)-5-methyl-1H-1,2,3-triazole-4-carboxamide] yielded a gall rating scale of 4.

In the case of `Cc1ccc(C)c(S(=O)(=O)NC(=O)c2nnn(-c3ccc(C#N)cc3Cl)c2C)c1` [Compound 328], the gall rating scale is recorded as 4.

In turn, `O=C(NS(=O)(=O)c1ccccc1C(F)(F)F)c1nnn(-c2cc(Cl)ccc2Cl)c1C(F)(F)F` [Compound 335, 1-(2,5-dichlorophenyl)-5-(trifluoromethyl)-N-((2-(trifluoromethyl)phenyl)sulfonyl)-1H-1,2,3-triazole-4-carboxamide] gave a gall rating scale of 4.

`CCc1c(C(=O)NS(=O)(=O)c2cc(OC)ccc2Cl)nnn1-c1ccc(OC(F)(F)F)cc1Cl` [Compound 336, 1-(2-chloro-4-(trifluoromethoxy)phenyl)-N-((2-chloro-5-methoxyphenyl)sulfonyl)-5-ethyl-1H-1,2,3-triazole-4-carboxamide] yielded a gall rating scale of 4.

`CCc1c(C(=O)NS(=O)(=O)c2cc(C)ccc2C)nnn1-c1ccc(OC(F)(F)F)cc1Cl` [Compound 337, 1-(2-chloro-4-(trifluoromethoxy)phenyl)-N-((2,5-dimethylphenyl)sulfonyl)-5-ethyl-1H-1,2,3-triazole-4-carboxamide] registered a gall rating scale of 4.

Regarding `CCc1c(C(=O)NS(=O)(=O)c2ccccc2Cl)nnn1-c1ccc(OC(F)(F)F)cc1Cl` [Compound 338, 1-(2-chloro-4-(trifluoromethoxy)phenyl)-N-((2-chlorophenyl)sulfonyl)-5-ethyl-1H-1,2,3-triazole-4-carboxamide], the gall rating scale is 4.

Take `CCc1c(C(=O)NS(=O)(=O)c2ccccc2F)nnn1-c1ccc(OC(F)(F)F)cc1Cl` [Compound 339, 1-(2-chloro-4-(trifluoromethoxy)phenyl)-5-ethyl-N-((2-fluorophenyl)sulfonyl)-1H-1,2,3-triazole-4-carboxamide]: the gall rating scale turned out to be 4.

For the compound `O=C(NS(=O)(=O)c1cc(C(F)(F)F)ccc1Cl)c1nnn(-c2ccc(F)cc2Cl)c1C(F)(F)F` [Compound 364, 1-(2-chloro-4-fluorophenyl)-N-((2-chloro-5-(trifluoromethyl)phenyl)sulfonyl)-5-(trifluoromethyl)-1H-1,2,3-triazole-4-carboxamide], the gall rating scale is on record as 4.

`O=C(NS(=O)(=O)c1ccccc1OC(F)(F)F)c1nnn(-c2cc(Cl)ccc2Cl)c1C(F)(F)F` [Compound 370, 1-(2,5-dichlorophenyl)-N-((2-(trifluoromethoxy)phenyl)sulfonyl)-5-(trifluoromethyl)-1H-1,2,3-triazole-4-carboxamide] showed a gall rating scale of 4.

In the case of `O=C(NS(=O)(=O)c1cc(Cl)ccc1Cl)c1nnn(-c2cc(Cl)ccc2Cl)c1C(F)(F)F` [Compound 371, 1-(2,5-dichlorophenyl)-N-((2,5-dichlorophenyl)sulfonyl)-5-(trifluoromethyl)-1H-1,2,3-triazole-4-carboxamide], the gall rating scale is recorded as 4.

`CCc1c(C(=O)NS(=O)(=O)c2ccccc2F)nnn1-c1ccc(F)cc1Cl` [Compound 378, 1-(2-chloro-4-fluorophenyl)-5-ethyl-N-((2-fluorophenyl)sulfonyl)-1H-1,2,3-triazole-4-carboxamide]: the gall rating scale came out at 4.

In turn, `Cc1ccc(C)c(S(=O)(=O)NC(=O)c2nnn(-c3ccc(C#N)cc3Cl)c2C(F)(F)F)c1` [Compound 389, 1-(2-chloro-4-cyanophenyl)-N-((2,5-dimethylphenyl)sulfonyl)-5-(trifluoromethyl)-1H-1,2,3-triazole-4-carboxamide] registered a gall rating scale of 4.

For the compound `N#Cc1ccc(-n2nnc(C(=O)NS(=O)(=O)c3cc(C(F)(F)F)ccc3C(F)(F)F)c2C(F)(F)F)c(Cl)c1` [Compound 390, N-((2,5-bis(trifluoromethyl)phenyl)sulfonyl)-1-(2-chloro-4-cyanophenyl)-5-(trifluoromethyl)-1H-1,2,3-triazole-4-carboxamide], the gall rating scale is 4.

The compound `N#Cc1ccc(-n2nnc(C(=O)NS(=O)(=O)c3ccccc3C(F)(F)F)c2C(F)(F)F)c(Cl)c1` [Compound 394, 1-(2-chloro-4-cyanophenyl)-5-(trifluoromethyl)-N-((2-(trifluoromethyl)phenyl)sulfonyl)-1H-1,2,3-triazole-4-carboxamide] gave a gall rating scale of 4.

`N#Cc1ccc(-n2nnc(C(=O)NS(=O)(=O)c3ccccc3OC(F)(F)F)c2C(F)(F)F)c(Cl)c1` [Compound 395, 1-(2-chloro-4-cyanophenyl)-N-((2-(trifluoromethoxy)phenyl)sulfonyl)-5-(trifluoromethyl)-1H-1,2,3-triazole-4-carboxamide] yielded a gall rating scale of 4.

On to `Cc1ccccc1S(=O)(=O)NC(=O)c1nnn(-c2ccc(C#N)cc2Cl)c1C(F)(F)F` [Compound 396, 1-(2-chloro-4-cyanophenyl)-N-(o-tolylsulfonyl)-5-(trifluoromethyl)-1H-1,2,3-triazole-4-carboxamide], for which the gall rating scale was 4.

`Cc1c(C(=O)NS(=O)(=O)c2cc(Cl)ccc2Cl)nnn1-c1ccc(C#N)cc1F` [Compound 410] came in with a gall rating scale of 4.

Take `Cc1c(C(=O)NS(=O)(=O)c2ccc(F)cc2F)nnn1-c1ccc(C#N)cc1F` [Compound 413]: the gall rating scale was 4.

On to `Cc1c(C(=O)NS(=O)(=O)c2ccccc2F)nnn1-c1ccc(C#N)cc1F` [Compound 415], for which the gall rating scale worked out at 4.

In turn, `Cc1c(C(=O)NS(=O)(=O)c2cc(C(F)(F)F)ccc2C(F)(F)F)nnn1-c1c(Cl)cc(Cl)cc1Cl` [Compound 430] registered a gall rating scale of 4.

For `Cc1c(C(=O)NS(=O)(=O)c2cc(C(F)(F)F)ccc2Br)nnn1-c1ccc(Cl)cc1F` [Compound 432], the gall rating scale amounted to 4.

Consider `Cc1ccc(C)c(S(=O)(=O)NC(=O)c2nnn(-c3ccc(Cl)cc3F)c2C)c1` [Compound 433], for which the gall rating scale was 4.

As to `Cc1c(C(=O)NS(=O)(=O)c2cc(C(F)(F)F)ccc2C(F)(F)F)nnn1-c1ccc(Cl)cc1F` [Compound 441], the gall rating scale is recorded as 4.

For `Cc1c(C(=O)NS(=O)(=O)c2ccccc2C(F)(F)F)nnn1-c1ccc(Cl)cc1F` [Compound 443], the gall rating scale worked out at 4.

`Cc1c(C(=O)NS(=O)(=O)c2ccccc2F)nnn1-c1ccc(Cl)cc1F` [Compound 445]: the gall rating scale turned out to be 4.

Turning to `Cc1c(C(=O)NS(=O)(=O)c2cc(C(F)(F)F)ccc2Cl)nnn1-c1ccc(Cl)cc1F` [Compound 446], the gall rating scale is recorded as 4.

In turn, `Cc1c(C(=O)NS(=O)(=O)c2cc(C(F)(F)F)ccc2Br)nnn1-c1ccc(C#N)cc1Cl` [Compound 458] came in with a gall rating scale of 4.

`Cc1ccccc1S(=O)(=O)NC(=O)c1nnn(-c2ccc(C#N)cc2Cl)c1C` [Compound 459] showed a gall rating scale of 4.

In the case of `Cc1cc(S(=O)(=O)NC(=O)c2nnn(-c3ccc(C#N)cc3Cl)c2C)c(C)cc1Cl` [Compound 460], the gall rating scale is on record as 4.

Compound `Cc1c(C(=O)NS(=O)(=O)c2cc(Cl)ccc2F)nnn1-c1ccc(C#N)cc1Cl` [Compound 497] gave a gall rating scale of 4.

`Cc1c(C(=O)NS(=O)(=O)c2ccc(Cl)c(F)c2)nnn1-c1ccc(C#N)cc1Cl` [Compound 499] returned a gall rating scale of 4.
